The values below come from paper PMC10009108, “Design, synthesis and screening of indole acetic acid-based tri-azo moieties as antioxidants, anti-microbial and cytotoxic agents” (Frontiers in Pharmacology, 2023).

≈ marks a conversion by molar mass, not a printed value.

The test system of series [1] is Mucor species (FCBP-0300). The series can be described thus: Antifungal disc diffusion assay. The class given is cell-based. The following applies: Mucor; 20 μg/disc. The procedure: (§1) The antifungal response to these chemical moieties was evaluated through a procedure designated by ([Zahra et al., 2017]). Amphotericin B (4 mg/mL DMSO) is used as + ve control and DMSO as-ve one (5 μL/disc). Sterile SDA-coated plates were used, on which 100 µL of suspension of spores for each strain (previously reaped-in-Tween-20 solution) was spread. Discs of sterile filter paper containing 5 µL of sample solution (4 mg/mL DMSO) were kept on plates and incubated for 2 days at 28°C. Zones of inhibition were recorded.
(§2) The Synthetic compound library was subjected to an antifungal assay using five different strains of Fungai, i.e., Fusarium solani (FCBP-0291), Aspergillus fumigatus (FCBP-66), Aspergillus flavus (FCBP-0064), Aspergillus niger (FCBP-0198) and Mucor species (FCBP-0300). Amphotericin B was the standard drug used. […] The outcomes are concise in Table 5.

For series [2], the system named is Aspergillus niger (FCBP-0198). The series can be described thus: Antifungal disc diffusion assay. The class given is cell-based. The following applies: Aspergillus niger; 20 μg/disc. The procedure:
as §1, §2
A general note: In agar diffusion tests the substance spreads into inoculated agar from a disc or well.

Series [3] has as its system Aspergillus flavus (FCBP-0064). Put plainly: Antifungal disc diffusion assay. The class given is cell-based. The following applies: Aspergillus flavus; 20 μg/disc. Here is the method: as §1, §2
Series [4] deals with Aspergillus fumigatus (FCBP-66). The series can be described thus: Antifungal disc diffusion assay. Conditions: Aspergillus fumigatus; 20 μg/disc. The class given is cell-based. Here is the method:
as §1, §2

Series [5] deals with Fusarium solani (FCBP-0291). Put plainly: Antifungal disc diffusion assay. The class given is cell-based. The following applies: Fusarium solani, 20 μg/disc; read-out: Zone of inhibition, F. solani. Here is the method: as §1, §2
In series [6] the test system is Streptomyces 85 E strains. Put plainly: Protein kinase inhibition assay. More on the design: key: Active = Bacterial activity; --- = no activity. Conditions: Sample Concentration = 20 μg/mL; Surfactin B 20 μg/mL. The class given is cell-based. The procedure: The protocol followed for this is mentioned ([Fatima et al., 2015]). To assess the test compound’s inhibitory potential, Streptomyces 85 E strains were used, which were refreshed in tryptone soya broth at 37 for 1 day. Spores from refreshed cultures were utilized to prepare the bacterial culture. 100 μg compound was loaded on 5 mm discs of filter paper. These were kept on sowed plates. DMSO-permeated discs were the -ve control. The incubation period was 7 days, and outcomes were stated as bald and clear zones of inhibition.
These synthetic products were evaluated to estimate the inhibitory potential for protein kinase of […] 85 E. Protein kinase is involved with the mycelium production of this species, so the growth patterns were observed as the bald zone. […] One of the propitious targets in cancer treatment is the inhibition of protein kinases. Protein phosphorylation by protein kinases at various residues regulates diverse biological processes, which may include apoptosis, proliferation and differentiation of cells. Deregulation at any step in early tumorigenesis may lead to cancer ([Yao et al., 2011]). Aerial hyphae formation in Streptomyces depends upon protein kinase activity; this scenario is exploited in this test; to inquire about these compounds’ kinase inhibition potential and to look at their anti-cancer potential. The advantage of using Streptomyces for kinase inhibition assay is its predisposition to a wide range of eukaryotic cells. Whole-cell assay of Streptomyces not only identifies the compound’s cytotoxic potential but also identifies signal transduction inhibitors for various activities, e.g., antitumor, anti-mycobacterial, and anti-infective ([Waters et al., 2002]). […] Activity with a bald zone of 10.5 mm and a clear zone of 7.5 mm, following is 5a with a bald zone of 9 mm and a clear zone of 6 mm, and for 5g, values are 7.5 and 6 mm, respectively. It means that these compounds have the potential for protein kinase inhibition as well as the toxicity of the compound.

In series [7] the test system is Streptomyces 85 E strains. Put plainly: Protein kinase inhibition assay. The class given is cell-based. The following applies: Sample Concentration = 20 μg/mL; Surfactin B 20 μg/mL.
Series [8] has as its system Bacillus subtilis (ATCC-6633). The series can be described thus: Antibacterial assay, micro broth dilution. The class given is cell-based. Details: key to Antibacterial activity, Bacillus subtilis: Activity: Active = Bacterial activity; --- = no activity. An excerpt: (§3) The micro broth dilution method was used to establish the antibacterial potential of test samples against Staphylococcus aureus (ATCC-6538), Bacillus subtilis (ATCC-6633), Escherichia coli (ATCC-25922), Klebsiella pneumoniae (ATCC-1705), and Pseudomonas aeruginosa (ATCC-15442) and for the resistant strains of MRSA Staphylococcus aureus, P. aeruginosa and Escherichia coli. The procedure used is described by ([Sarker et al., 2007]). Bacterial inoculum was formed under aseptic conditions keeping the density near 5 × 10^4 CFU/mL in pre-autoclaved nutrient broth. Test samples of an aliquot of 5 µL were shifted to labeled wells of 96 well plates, and after that addition of 195 µL of nutrient broth; was accomplished. After that, a 2-fold serial dilution of every sample was arranged to get final concentrations of 12.5 μg/mL. Then, with the help of a micropipette, 195 µL of bacterial culture of respective strains was poured into each well; further advancement was incubating of plates for 30 min at the temperature of 37°C. […] Incubation of plates was again carried out at 37°C for 1 day, absorbance was noted, and net change in turbidity was the difference between two values of absorbance.
(§4) Schiff base tri-azo compounds were investigated for antibacterial potential. […] 6.25 μg/mL for 5b and 5g, and the least, Table 4 3.12 μg/mL was for 5f. […] Substituents with electron-withdrawing attributes, e.g., -NO2, -Cl, -OH on the aromatic ring, assert a great impact on the antibacterial activity of synthetic compounds. It is also observed that an increase in the number of -OH groups tend to enhance the activity ([Hosamani and Shingalapur, 2011]). Due to the difference in cell-wall composition of Gram + ve and -ve bacteria, different compounds show different features towards the same micro-organism ([Goszczyn’ska et al., 2015]).
(Broth dilution looks for growth in wells or tubes with falling amounts of substance.)

The test system of series [9] is Escherichia coli (ATCC-25922). The series can be described thus: Antibacterial assay, micro broth dilution. The class given is cell-based. The following applies: ATCC25922, read-out: E. coli MIC.
Description: as §3, §4

The test system of series [10] is Klebsiella pneumoniae (ATCC-1705). Put plainly: Antibacterial assay, micro broth dilution. The following applies: ATCC1705. The class given is cell-based.
Description: as §3, §4

The test system of series [11] is Pseudomonas aeruginosa (ATCC-15442). The series can be described thus: Antibacterial assay, micro broth dilution. The class given is cell-based. Conditions: ATCC15442.
Description: as §3, §4

Series [12] deals with Staphylococcus aureus (ATCC-6538). The series can be described thus: Antibacterial assay, micro broth dilution. The following applies: ATCC6538, read-out: S. aureus MIC. The class given is cell-based.
Description: as §3, §4

The subject of another series is resistant S. aureus. The series can be described thus: Antibacterial assay, resistant strains. The class given is cell-based, Staphylococcus aureus. Conditions: resistant strain.
Description: as §3, §4

Series [13] deals with MRSA. Put plainly: Antibacterial assay, resistant strains. The class given is cell-based. The following applies: Staphylococcus aureus, resistant strain.
Description: as §3, §4

For a further series, the system named is resistant P. aeruginosa. The series can be described thus: Antibacterial assay, resistant strains. The class given is cell-based. Conditions: resistant strain.
Description: as §3, §4

The test system of the next series is resistant E.coli. The series can be described thus: Antibacterial assay, resistant strains. The class given is cell-based, Escherichia coli. The following applies: resistant strain.
Description: as §3, §4

Series [14] has as its system Staphylococcus aureus (ATCC-6538). The series can be described thus: Antibacterial assay, micro broth dilution. The class given is cell-based. More on the design: key: Active = Bacterial activity; --- = no activity. The following applies: 25 μg/mL.
Series [15] has as its system Pseudomonas aeruginosa (ATCC-15442). Put plainly: Antibacterial assay, micro broth dilution. The class given is cell-based. More on the design: key: Active = Bacterial activity; --- = no activity. Conditions: 25 μg/mL.
The subject of series [16] is Klebsiella pneumoniae (ATCC-1705). Put plainly: Antibacterial assay, micro broth dilution. The class given is cell-based. The following applies: 25 μg/mL. Details: key: Active = Bacterial activity; --- = no activity.
Series [17] deals with Escherichia coli (ATCC-25922). The series can be described thus: Antibacterial assay, micro broth dilution. The class given is cell-based. Details: key: Active = Bacterial activity; --- = no activity. The following applies: 25 μg/mL.
The subject of series [18] is MRSA. Put plainly: Antibacterial assay, resistant strains. The class given is cell-based, Staphylococcus aureus. Conditions: 25 μg/mL; resistant strain.
The nature of the next series: in vivo. The procedure:
The cytotoxic evaluation was accomplished using the decorum designed by ([Khan et al., 2011]). To a plate of 96 wells, artificial seawater and nauplii were added. Test samples were taken in wells (40, 20, 10, 5 μg/mL) after making up the final volume with seawater, the plates were left uncovered under the lamp, and after 24 h, the number of surviving larvae was calculated. For samples having ≥50% mortality, the median lethal conc was calculated using the table curve software, Doxorubicin was used as + ve control, and DMSO was the -ve. The percentage of killed organisms was found using the formula. Percentage Mortality=No of dead shrimps÷Total Number of Shrimps×100
The results of all the experiments were articulated as mean ± SD. Each test was performed in triplicate. TAC assay was analyzed by one-way analysis of variance (ANOVA) following DUNCAN’S test using the statistical package for social sciences 18 and p < 0.05 was considered as significant where appropriate. For samples having ≥50% mortality, the median lethal concentration (LC50) was calculated using the table curve software.
This evaluation test forms the basis for the bioactive scanning of compounds for their potential as anti-cancer moieties, to be investigated on a large scale ([Amanullah et al., 2012]). […] Similarities between Artemia salina and mammalian cells have been reported due to DNA-dependent RNA polymerases ([Birndorf et al., 1975]). These Schiff bases were investigated for their cytotoxic potential. […] Doxorubicin was used as the positive control.

In the case of `C[C@@H]1[C@H](O)[C@@H](C)/C=C/C=C/C=C/C=C/C=C/C=C/C=C/[C@H](O[C@@H]2O[C@H](C)[C@@H](O)[C@H](N)[C@@H]2O)C[C@@H]2O[C@](O)(C[C@@H](O)C[C@@H](O)[C@H](O)CC[C@@H](O)C[C@@H](O)CC(=O)O[C@H]1C)C[C@H](O)[C@H]2C(=O)O` [Amphotericin B, reference compound], the zone of inhibition (commonly the extent of the growth-free halo in a diffusion test) at 20 µg/disc in series [1] was found to be 11.5 mm; in [2], 12.5 mm; in series [3], 12 mm; in series [4], 10 mm; in series [5] it was 11.5 mm.
Turning to Surfactin B [reference compound], the Clear zone entry in [6] is listed as “---”. Besides, the Bald zone in [7] is 22.3 mm.
For the compound `O=C(O)c1cn(C2CC2)c2cc(N3CCNCC3)c(F)cc2c1=O` [Ciprofloxacin, reference compound], in series [8] (25 μg/mL), the “Antibacterial activity, Bacillus subtilis: Activity” value was “Active”. Also, the MIC (as a rule, the least concentration at which growth counts as inhibited) in [8] (Bacillus subtilis, ATCC6633) stood at 3.12 µg/mL (≈ 9.42 µM); in [9] it was 3.12 µg/mL (≈ 9.42 µM); in [10], 3.12 µg/mL (≈ 9.42 µM); in [11], 3.12 µg/mL (≈ 9.42 µM); in [12], 3.12 µg/mL (≈ 9.42 µM); with resistant S. aureus (Staphylococcus aureus), 3.12 µg/mL (≈ 9.42 µM). The minimum inhibitory concentration (MIC) with MRSA [13], against resistant P. aeruginosa (Pseudomonas aeruginosa) and against resistant E.coli (Escherichia coli) was 3.12 µg/mL (≈ 9.42 µM) in each case. Moreover, the “Antibacterial activity, resistant S. aureus: Activity” value in the series on resistant S. aureus (25 μg/mL) is “Active”. The “Antibacterial activity, resistant P. aeruginosa: Activity” value with resistant P. aeruginosa (25 μg/mL) is reported as “Active”. Moreover, the “Antibacterial activity, resistant E.coli: Activity” value with resistant E.coli (25 μg/mL) was “Active”. For the same compound, the “Antibacterial activity, S. aureus: Activity” value in series [14] was “Active”. Also, the “Antibacterial activity, Pseudomonas aeruginosa: Activity” value in [15] is recorded as “Active”. For the same compound, in series [16], the “Antibacterial activity, Klebsiella pneumoniae: Activity” value is reported as “Active”. Further, the “Antibacterial activity, E. coli: Activity” value in series [17] is listed as “Active”. For the same compound, the “Antibacterial activity, MRSA: Activity” value in the series with MRSA [18] was “Active”.
Take `COc1cccc2c1C(=O)c1c(O)c3c(c(O)c1C2=O)C[C@@](O)(C(=O)CO)C[C@@H]3O[C@H]1C[C@H](N)[C@H](O)[C@H](C)O1` [Doxorubicin, reference compound]: in “in vivo”, the median lethal concentration (LC50) (usually the concentration lethal to half of the exposed cells or organisms) at 24 h amounted to 5.7 µg/mL (≈ 10.5 µM).
